The supplement of paper PMC10627819

What was measured:
S. aureus Newman [1] = test: fitness (endpoint OD595 vs no drug) (fraction); higher = more growth; details: main component drawn
Method in brief: (§1)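 Bacterial growth was followed in 384-well plates seeded at OD595 0.01, with 30 µl per well, or 55 µl for S. pneumoniae, in TSB, LB Lennox or CY at 37 °C. OD595 was read every 30 min for 14 h, and each reading had the first reading subtracted as background. Fitness is the background-corrected optical density at entry into stationary phase divided by the robust mean of the no-drug control wells. This ratio is capped at 1.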

S. aureus DSM 20231 [2] = test: as above
Method in brief: as §1

S. pneumoniae D39V [3] = test: Bliss interaction score (quartile over a dose matrix) (fitness difference); higher = more antagonism (negative = synergy)
Method in brief: (§2)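 Quartiles of the Bliss score were taken over technical, biological and donor/recipient replicates. That score is observed fitness minus the product of the single-drug fitness values, which were inferred from combination data. Fitness itself is OD595 at entry into stationary phase divided by the plate's robust no-drug mean, with a cap at 1.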

B. subtilis 168 [4] = test: as above
Method in brief: as §2

S. aureus Newman [5] = test: as above
Method in brief: as §2

S. aureus DSM 20231 [6] = test: as above
Method in brief: as §2

S. pneumoniae D39V [7] = test: fitness (endpoint OD595 vs no drug) (fraction); higher = more growth
Method in brief: as §1

B. subtilis 168 [8] = test: as above
Method in brief: as §1
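For Bliss interaction score (quartile over a dose matrix) in this document: first quartile when negative (synergy) and third quartile when positive (antagonism).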

CO/N=C(\C(=O)N[C@@H]1C(=O)N2C(C(=O)O)=C(COC(C)=O)CS[C@H]12)c1csc(N)n1 [Cefotaxime] + CCCCCCCCCC(=O)N[C@@H]1[C@H]([C@@H]([C@H](O[C@H]1OC2=C3C=C4C=C2OC5=C(C=C(C=C5)[C@H]([C@H]6C(=O)N[C@@H](C7=C(C(=CC(=C7)O)OC8[C@H]([C@H]([C@@H]([C@H](O8)CO)O)O)O)C9=C(C=CC(=C9)[C@H](C(=O)N6)NC(=O)[C@@H]4NC(=O)[C@@H]1C2=CC(=CC(=C2)OC2=C(C=CC(=C2)[C@H](C(=O)N[C@H](CC2=CC(=C(O3)C=C2)Cl)C(=O)N1)N)O)O)O)C(=O)O)O[C@H]1[C@@H]([C@H]([C@@H]([C@H](O1)CO)O)O)NC(=O)C)Cl)CO)O)O [Teicoplanin]
fitness
Details	partner 0.1562 µg/mL	partner 0.3125 µg/mL	partner 0.62 µg/mL	partner 0.625 µg/mL	partner 1.24 µg/mL	partner 2.48 µg/mL
S. aureus DSM 20231 [2], first compound 0.078 µg/mL, main component drawn	0.791	0.828	–	0.826	–	–
S. aureus DSM 20231 [2], first compound 0.156 µg/mL, main component drawn	0.705	0.775	–	0.716	–	–
S. aureus DSM 20231 [2], first compound 0.312 µg/mL, main component drawn	0.667	0.665	–	0.663	–	–
S. aureus Newman [1], first compound 0.039 µg/mL, one replicate	–	–	0.563	–	0.614	0.405
S. aureus Newman [1], first compound 0.078 µg/mL, one replicate	–	–	0.592	–	0.531	0.203
S. aureus Newman [1], first compound 0.156 µg/mL, one replicate	–	–	0.459	–	0.487	0.094
S. aureus Newman [1], first compound 0.312 µg/mL, one replicate	–	–	0.453	–	0.436	0.0757
S. aureus Newman [1], first compound 0.625 µg/mL, one replicate	0.0055	0.0074	–	0.152	–	–
S. aureus Newman [1], first compound 1.25 µg/mL, one replicate	0.0152	0.0026	–	0.0074	–	–
S. aureus Newman [1], first compound 2.5 µg/mL, one replicate	0.0359	0.0126	–	0.0149	–	–

fitness, S. aureus Newman [1]
Details	first compound 0.078 µg/mL	first compound 0.156 µg/mL	first compound 0.312 µg/mL
partner 0.1562 µg/mL	0.684	0.52	0.343
partner 0.3125 µg/mL	0.672	0.498	0.356
partner 0.625 µg/mL	0.574	0.46	0.315

S. aureus DSM 20231 [2], first compound 0.039 µg/mL, one replicate, main component drawn
Details	fitness
partner 0.1562 µg/mL	0.672
partner 0.3125 µg/mL	0.754
partner 0.625 µg/mL	0.786

main component drawn
Details	Bliss interaction score
B. subtilis 168 [4]	-0.0867
S. aureus DSM 20231 [6]	-0.0684
S. aureus Newman [5]	-0.0611
S. pneumoniae D39V [3]	-0.0543

COc1cccc2c1C(=O)c1c(O)c3c(c(O)c1C2=O)C[C@@](O)(C(=O)CO)C[C@@H]3O[C@H]1C[C@H](N)[C@H](O)[C@H](C)O1 [Doxorubicin] + CC(=O)NC[C@H]1CN(c2ccc(N3CCOCC3)c(F)c2)C(=O)O1 [Linezolid]
fitness
Details	first compound 0.25 µg/mL	first compound 0.5 µg/mL	first compound 0.625 µg/mL	first compound 1 µg/mL	first compound 1.25 µg/mL	first compound 2.5 µg/mL
B. subtilis 168 [8], partner 0.125 µg/mL	–	–	0.556	–	0.489	0.311
B. subtilis 168 [8], partner 0.25 µg/mL	–	–	0.0946	–	0.078	0.0654
B. subtilis 168 [8], partner 0.5 µg/mL	–	–	0.0377	–	0.0497	0.0425
S. aureus DSM 20231 [2], partner 0.125 µg/mL	–	–	0.762	–	0.814	0.716
S. aureus DSM 20231 [2], partner 0.25 µg/mL	–	–	0.617	–	0.603	0.514
S. aureus DSM 20231 [2], partner 0.5 µg/mL	–	–	0.223	–	0.204	0.16
S. pneumoniae D39V [7], partner 0.105 µg/mL	0.755	0.756	–	0.746	–	–
S. pneumoniae D39V [7], partner 0.2 µg/mL	0.49	0.487	–	0.412	–	–
S. pneumoniae D39V [7], partner 0.21 µg/mL	0.633	0.66	–	0.674	–	–
S. pneumoniae D39V [7], partner 0.4 µg/mL	0.351	0.331	–	0.302	–	–
S. pneumoniae D39V [7], partner 0.42 µg/mL	0.472	0.432	–	0.377	–	–
S. pneumoniae D39V [7], partner 0.8 µg/mL	0.155	0.153	–	0.141	–	–

fitness, one replicate
Details	first compound 0.625 µg/mL	first compound 1.25 µg/mL	first compound 2.5 µg/mL
B. subtilis 168 [8], partner 0.0625 µg/mL	0.956	0.901	0.574
S. aureus DSM 20231 [2], partner 1 µg/mL	0.0276	0.0358	0.0376

Details	Bliss interaction score
B. subtilis 168 [4]	-0.0705
S. aureus DSM 20231 [6]	-0.0425
S. aureus Newman [5]	0.0954
S. pneumoniae D39V [3]	-0.113

CO/N=C(\C(=O)N[C@@H]1C(=O)N2C(C(=O)O)=C(COC(C)=O)CS[C@H]12)c1csc(N)n1 [Cefotaxime] + CCC[C@@H]1C[C@@H](C(=O)N[C@@H]([C@H]2O[C@H](SC)[C@H](O)[C@@H](O)[C@H]2O)[C@@H](C)O)N(C)C1 [Lincomycin]
fitness
Details	partner 0.1 µg/mL	partner 0.2 µg/mL	partner 0.215 µg/mL	partner 0.4 µg/mL	partner 0.43 µg/mL	partner 0.8 µg/mL	partner 0.86 µg/mL
B. subtilis 168 [8], first compound 0.5 µg/mL	0.257	0.241	–	0.201	–	–	–
B. subtilis 168 [8], first compound 1 µg/mL	0.144	0.126	–	0.0991	–	–	–
B. subtilis 168 [8], first compound 2 µg/mL	0.0702	0.0617	–	0.0675	–	–	–
S. aureus DSM 20231 [2], first compound 0.039 µg/mL	0.748	0.799	–	–	–	–	–
S. aureus DSM 20231 [2], first compound 0.078 µg/mL	0.721	0.728	–	–	–	–	–
S. aureus DSM 20231 [2], first compound 0.156 µg/mL	0.628	0.659	–	0.353	–	–	–
S. aureus DSM 20231 [2], first compound 0.312 µg/mL	0.582	0.569	–	0.188	–	–	–
S. pneumoniae D39V [7], first compound 0.0018 µg/mL	–	0.667	0.903	0.469	0.759	0.185	0.56
S. pneumoniae D39V [7], first compound 0.0035 µg/mL	–	0.626	0.866	0.455	0.748	0.142	0.489
S. pneumoniae D39V [7], first compound 0.007 µg/mL	–	0.566	0.868	0.388	0.791	0.0851	0.469

fitness, B. subtilis 168 [8], one replicate
Details	first compound 0.00775 µg/mL	first compound 0.0155 µg/mL	first compound 0.031 µg/mL	first compound 0.0625 µg/mL	first compound 0.125 µg/mL	first compound 0.25 µg/mL
partner 0.1 µg/mL	–	–	–	0.506	0.44	0.334
partner 0.2 µg/mL	–	–	–	0.548	0.452	0.371
partner 0.4 µg/mL	0.767	0.667	0.452	0.475	0.444	0.319
partner 0.8 µg/mL	0.744	0.619	0.415	–	–	–
partner 1.6 µg/mL	0.683	0.575	0.388	–	–	–

Details	Bliss interaction score
B. subtilis 168 [4]	0.0413
S. aureus DSM 20231 [6]	0.0625
S. aureus Newman [5]	-0.173
S. pneumoniae D39V [3]	0.105
